PubChem BioAssay AID1919007 (Molecular Pharmacology Branch, DTP, NCI, 2023)
Values joined by “and” are separate entries in the source; they are usually repeats but may differ in a detail not shown here. Equal values may be shown once.

Test system: A498 complex spheroids with HUVEC/MSC, growth
Assay: Anticancer human tumor A498 cell line growth inhibition [AhR];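 note: seven day exposure starting three days after spheroid seeding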;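 for viability, T/C: luminescence signal used as a surrogate for viable cells; luminescence viability scaled so 100% equals DMSO vehicle wells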
Conditions: for viability, T/C: stronger effect = lower value
Summary of the method: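 Spheroids combined tumor cells with HUVEC endothelial cells and human MSCs as stroma. AhR antagonists were paired with standard or investigational drugs, each dosed in half-log steps down from near clinical Cmax, or from 10 microM where Cmax was unknown.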

[1] = curve of first compound, second compound 0.1 µM
[2] = curve of first compound, second compound 0.316 µM
[3] = curve of first compound, second compound 1 µM
[4] = curve of first compound, second compound 3.16 µM
[5] = curve of first compound, second compound 10 µM
[6] = second compound 0.1 µM, first compound 0.0316 µM
[7] = second compound 0.1 µM, first compound 0.1 µM
[8] = second compound 0.1 µM, first compound 0.316 µM
[9] = second compound 0.1 µM, first compound 1 µM
[10] = second compound 0.1 µM, first compound 3.16 µM
[11] = second compound 0.1 µM, first compound 10 µM
[12] = second compound 0.316 µM, first compound 0.0316 µM
[13] = second compound 0.316 µM, first compound 0.1 µM
[14] = second compound 0.316 µM, first compound 0.316 µM
[15] = second compound 0.316 µM, first compound 1 µM
[16] = second compound 0.316 µM, first compound 3.16 µM
[17] = second compound 0.316 µM, first compound 10 µM
[18] = second compound 1 µM, first compound 0.0316 µM
[19] = second compound 1 µM, first compound 0.1 µM
[20] = second compound 1 µM, first compound 0.316 µM
[21] = second compound 1 µM, first compound 1 µM
[22] = second compound 1 µM, first compound 3.16 µM
[23] = second compound 1 µM, first compound 10 µM
[24] = second compound 3.16 µM, first compound 0.0316 µM
[25] = second compound 3.16 µM, first compound 0.1 µM
[26] = second compound 3.16 µM, first compound 0.316 µM
[27] = second compound 3.16 µM, first compound 1 µM
[28] = second compound 3.16 µM, first compound 3.16 µM
[29] = second compound 3.16 µM, first compound 10 µM
[30] = second compound 10 µM, first compound 0.0316 µM
[31] = second compound 10 µM, first compound 0.1 µM
[32] = second compound 10 µM, first compound 0.316 µM
[33] = second compound 10 µM, first compound 1 µM
[34] = second compound 10 µM, first compound 3.16 µM
[35] = second compound 10 µM, first compound 10 µM

Compound: COc1cc(Nc2ncc3c(n2)-c2ccc(Cl)cc2C(c2c(F)cccc2OC)=NC3)ccc1C(=O)O + CC(CO)NC(=O)c1cc(-c2ccc(Cl)cc2)nn(-c2cnn(C)c2)c1=O
- IC50 [1]: 1490 nM
- IC50 [2]: 1360 nM
- IC50 [3]: 892 nM
- IC50 [4]: 1060 nM
- IC50 [5]: 455 nM
- viability, T/C [6]: 62.6%
- viability, T/C [7]: 69.4%
- viability, T/C [8]: 63.5%
- viability, T/C [9]: 50.2%
- viability, T/C [10]: 45.3%
- viability, T/C [11]: 33.2%
- viability, T/C [12]: 70%
- viability, T/C [13]: 67.9%
- viability, T/C [14]: 64.5%
- viability, T/C [15]: 50.7%
- viability, T/C [16]: 43.3%
- viability, T/C [17]: 32.3%
- viability, T/C [18]: 60.1%
- viability, T/C [19]: 67.5%
- viability, T/C [20]: 61.1%
- viability, T/C [21]: 47%
- viability, T/C [22]: 41.5%
- viability, T/C [23]: 33.5%
- viability, T/C [24]: 55.1%
- viability, T/C [25]: 59.9%
- viability, T/C [26]: 59.1%
- viability, T/C [27]: 47.2%
- viability, T/C [28]: 42.2%
- viability, T/C [29]: 30.8%
- viability, T/C [30]: 49.6%
- viability, T/C [31]: 55%
- viability, T/C [32]: 53.3%
- viability, T/C [33]: 44.8%
- viability, T/C [34]: 37.4%
- viability, T/C [35]: 34.9%

Compound: Nc1ccn(C2OC(CO)C(O)C2(F)F)c(=O)n1 (configuration not stated)
- viability, T/C (compound 0.0316 µM): 30.9% and 36.6% and 26.1%
- viability, T/C (compound 0.1 µM): 35.4% and 37.9% and 25.6%
- viability, T/C (compound 0.316 µM): 50.1% and 45.6% and 30.7%
- viability, T/C (compound 1 µM): 43% and 49.6% and 32.6%
- viability, T/C (compound 3.16 µM): 40.7% and 51.3% and 33%
- viability, T/C (compound 10 µM): 42.1% (2×) and 29.6%
- IC50 (curve of compound): < 31.6 nM

Compound: CCN(c1cc(-c2ccc(CN3CCOCC3)cc2)cc(C(=O)NCc2c(C)cc(C)[nH]c2=O)c1C)C1CCOCC1 + CC(CO)NC(=O)c1cc(-c2ccc(Cl)cc2)nn(-c2cnn(C)c2)c1=O
- IC50 [1]: > 3000 nM
- IC50 [2]: > 3000 nM
- IC50 [3]: > 3000 nM
- IC50 [4]: > 3000 nM
- IC50 [5]: > 3000 nM
- viability, T/C (second compound 0.1 µM, first compound 0.00949 µM): 99.8%
- viability, T/C (second compound 0.1 µM, first compound 0.03 µM): 95%
- viability, T/C (second compound 0.1 µM, first compound 0.0949 µM): 97.8%
- viability, T/C (second compound 0.1 µM, first compound 0.3 µM): 95.6%
- viability, T/C (second compound 0.1 µM, first compound 0.949 µM): 102%
- viability, T/C (second compound 0.1 µM, first compound 3 µM): 103%
- viability, T/C (second compound 0.316 µM, first compound 0.00949 µM): 93.2%
- viability, T/C (second compound 0.316 µM, first compound 0.03 µM): 101%
- viability, T/C (second compound 0.316 µM, first compound 0.0949 µM): 97.8%
- viability, T/C (second compound 0.316 µM, first compound 0.3 µM): 93.3%
- viability, T/C (second compound 0.316 µM, first compound 0.949 µM): 96.1%
- viability, T/C (second compound 0.316 µM, first compound 3 µM): 98.9%
- viability, T/C (second compound 1 µM, first compound 0.00949 µM): 94.4%
- viability, T/C (second compound 1 µM, first compound 0.03 µM): 95.8%
- viability, T/C (second compound 1 µM, first compound 0.0949 µM): 103%
- viability, T/C (second compound 1 µM, first compound 0.3 µM): 92.3%
- viability, T/C (second compound 1 µM, first compound 0.949 µM): 95.4%
- viability, T/C (second compound 1 µM, first compound 3 µM): 97.4%
- viability, T/C (second compound 3.16 µM, first compound 0.00949 µM): 84.3%
- viability, T/C (second compound 3.16 µM, first compound 0.03 µM): 96.2%
- viability, T/C (second compound 3.16 µM, first compound 0.0949 µM): 101%
- viability, T/C (second compound 3.16 µM, first compound 0.3 µM): 88.5%
- viability, T/C (second compound 3.16 µM, first compound 0.949 µM): 85.6%
- viability, T/C (second compound 3.16 µM, first compound 3 µM): 102%
- viability, T/C (second compound 10 µM, first compound 0.00949 µM): 72.7%
- viability, T/C (second compound 10 µM, first compound 0.03 µM): 77.5%
- viability, T/C (second compound 10 µM, first compound 0.0949 µM): 83.3%
- viability, T/C (second compound 10 µM, first compound 0.3 µM): 75.3%
- viability, T/C (second compound 10 µM, first compound 0.949 µM): 70.3%
- viability, T/C (second compound 10 µM, first compound 3 µM): 75.9%

Compound: Cn1ncnc1C1c2n[nH]c(=O)c3cc(F)cc(c23)NC1c1ccc(F)cc1 (configuration not stated) + Cc1ccccc1N=Nc1ccc(NC(=O)c2ccnn2C)c(C)c1
- IC50 [1]: > 100 nM
- IC50 [2]: > 100 nM
- IC50 [3]: > 100 nM
- IC50 [4]: > 100 nM
- IC50 [5]: > 100 nM
- viability, T/C (second compound 0.1 µM, first compound 0.000316 µM): 102%
- viability, T/C (second compound 0.1 µM, first compound 0.001 µM): 93.6%
- viability, T/C (second compound 0.1 µM, first compound 0.00316 µM): 92.2%
- viability, T/C (second compound 0.1 µM, first compound 0.01 µM): 94%
- viability, T/C [6]: 86%
- viability, T/C [7]: 88%
- viability, T/C (second compound 0.316 µM, first compound 0.000316 µM): 96.3%
- viability, T/C (second compound 0.316 µM, first compound 0.001 µM): 91.5%
- viability, T/C (second compound 0.316 µM, first compound 0.00316 µM): 95.1%
- viability, T/C (second compound 0.316 µM, first compound 0.01 µM): 93.3%
- viability, T/C [12]: 90.4%
- viability, T/C [13]: 88.2%
- viability, T/C (second compound 1 µM, first compound 0.000316 µM): 93.5%
- viability, T/C (second compound 1 µM, first compound 0.001 µM): 89%
- viability, T/C (second compound 1 µM, first compound 0.00316 µM): 85.6%
- viability, T/C (second compound 1 µM, first compound 0.01 µM): 81.2%
- viability, T/C [18]: 81.5%
- viability, T/C [19]: 87.3%
- viability, T/C (second compound 3.16 µM, first compound 0.000316 µM): 83.7%
- viability, T/C (second compound 3.16 µM, first compound 0.001 µM): 86.8%
- viability, T/C (second compound 3.16 µM, first compound 0.00316 µM): 88.7%
- viability, T/C (second compound 3.16 µM, first compound 0.01 µM): 84.7%
- viability, T/C [24]: 83.2%
- viability, T/C [25]: 73.7%
- viability, T/C (second compound 10 µM, first compound 0.000316 µM): 82%
- viability, T/C (second compound 10 µM, first compound 0.001 µM): 93%
- viability, T/C (second compound 10 µM, first compound 0.00316 µM): 90.8%
- viability, T/C (second compound 10 µM, first compound 0.01 µM): 85%
- viability, T/C [30]: 79.6%
- viability, T/C [31]: 81.7%

Compound: O=C(C=Cc1cccc(S(=O)(=O)Nc2ccccc2)c1)NO + Cc1ccccc1N=Nc1ccc(NC(=O)c2ccnn2C)c(C)c1
- IC50 [1]: 1950 nM
- IC50 [2]: 2020 nM
- IC50 [3]: 1850 nM
- IC50 [4]: 1450 nM
- IC50 [5]: 1790 nM
- viability, T/C [6]: 84.2%
- viability, T/C [7]: 88.4%
- viability, T/C [8]: 72%
- viability, T/C [9]: 56.9%
- viability, T/C [10]: 45.4%
- viability, T/C [11]: 19.8%
- viability, T/C [12]: 95.6%
- viability, T/C [13]: 87.5%
- viability, T/C [14]: 75.2%
- viability, T/C [15]: 59.5%
- viability, T/C [16]: 46.3%
- viability, T/C [17]: 20.1%
- viability, T/C [18]: 82.4%
- viability, T/C [19]: 82.7%
- viability, T/C [20]: 68.2%
- viability, T/C [21]: 54.6%
- viability, T/C [22]: 47%
- viability, T/C [23]: 18.3%
- viability, T/C [24]: 85.5%
- viability, T/C [25]: 80.9%
- viability, T/C [26]: 63%
- viability, T/C [27]: 55.7%
- viability, T/C [28]: 42.4%
- viability, T/C [29]: 18.8%
- viability, T/C [30]: 80.2%
- viability, T/C [31]: 75.7%
- viability, T/C [32]: 71.1%
- viability, T/C [33]: 55.1%
- viability, T/C [34]: 43.9%
- viability, T/C [35]: 17.5%

Compound: O=C(C=Cc1cccc(S(=O)(=O)Nc2ccccc2)c1)NO + CC(CO)NC(=O)c1cc(-c2ccc(Cl)cc2)nn(-c2cnn(C)c2)c1=O
- IC50 [1]: 812 nM
- IC50 [2]: 719 nM
- IC50 [3]: 704 nM
- IC50 [4]: 612 nM
- IC50 [5]: 298 nM
- viability, T/C [6]: 82.8%
- viability, T/C [7]: 79.2%
- viability, T/C [8]: 63.6%
- viability, T/C [9]: 42.5%
- viability, T/C [10]: 32.6%
- viability, T/C [11]: 9.53%
- viability, T/C [12]: 80.2%
- viability, T/C [13]: 74.3%
- viability, T/C [14]: 64.5%
- viability, T/C [15]: 39.4%
- viability, T/C [16]: 31.9%
- viability, T/C [17]: 9.41%
- viability, T/C [18]: 80.5%
- viability, T/C [19]: 80.8%
- viability, T/C [20]: 61%
- viability, T/C [21]: 42.2%
- viability, T/C [22]: 28.1%
- viability, T/C [23]: 9.7%
- viability, T/C [24]: 73.1%
- viability, T/C [25]: 72.8%
- viability, T/C [26]: 58.6%
- viability, T/C [27]: 39.6%
- viability, T/C [28]: 28.8%
- viability, T/C [29]: 6.66%
- viability, T/C [30]: 67%
- viability, T/C [31]: 56.6%
- viability, T/C [32]: 53.8%
- viability, T/C [33]: 33.7%
- viability, T/C [34]: 25.6%
- viability, T/C [35]: 6.56%
